Laboratory results taken from patent US4826982A, “Quinolonecarboxylic acid derivatives” (Kyorin Pharmaceutical Co., Ltd., priority 1985, dated 1989).
Converted amounts (≈) assume the structure as drawn.

Key:
gram-positive bacteria = details: background art; cited from earlier work
gram-negative bacteria = details: background art; CI-934 compared with Norfloxacin and Ciprofloxacin; cited from earlier work
[1] = system: Pseudomonas aeruginosa V-1; assay: Antibacterial spectrum, MIC; details: V1
[2] = system: Morganella morganii IID 602; assay: Antibacterial spectrum, MIC; format: cell-based; details: IID602
Pst. micros UPI 5464-1 = assay: Antibacterial spectrum, MIC; details: Parvimonas micra, UPI54641
[3] = system: Propionibacterium acens 11828; assay: Antibacterial spectrum, MIC; format: cell-based
C. ramosum = assay: Antibacterial spectrum, MIC; format: cell-based; details: Thomasclavelia ramosa
[4] = system: Yersinia enterocolitica IID 981; assay: microbe, parasite or virus in culture; format: cell-based; details: IID981
[5] = system: B. thetaiotaomicron (0661); assay: Antibacterial spectrum, MIC; format: cell-based; details: Bacteroides thetaiotaomicron
[6] = system: Veillonella parvula KYA 10790; assay: Antibacterial spectrum, MIC; details: KYA10790
[7] = system: Peptococcus magnus KY 017; assay: microbe, parasite or virus in culture; details: Finegoldia magna, KY017
[8] = system: Bacteroides fragilis GM 7000; assay: Antibacterial spectrum, MIC; details: GM7000
[9] = system: Eubacterium lentum GAI 5242; assay: microbe, parasite or virus in culture; details: Eggerthella lenta, GAI5242
[10] = system: Bacillus subtilis PCI 219; assay: Antibacterial spectrum, MIC by method recommended by Japan Society of Chemotherapy; format: cell-based; details: PCI219, 10^6 cells/ml, Gram +, standard strain
Excerpt: (§1) In vitro antibacterial activity (standard strains)
(§2) Organism (10^6 cells/ml)

F. varium KYA 8501 = assay: Antibacterial spectrum, MIC; format: cell-based; details: Fusobacterium varium, KYA8501
[11] = system: Clostridium perfringens KYA 13123; assay: microbe, parasite or virus in culture; details: KYA13123
S. pyogenes IID 692 = assay: microbe, parasite or virus in culture; details: Streptococcus pyogenes, IID692
P. aeruginosa IFO 12689 = assay: microbe, parasite or virus in culture; details: Pseudomonas aeruginosa, IFO12689
[12] = system: Peptostreptococcus anaerobius KYA 27337; assay: Antibacterial spectrum, MIC; format: cell-based; details: KYA27337
Shigella sonnei IID 969 = assay: Antibacterial spectrum, MIC; format: cell-based; details: IID969, 10^6 cells/ml, Gram -, standard strain
Excerpt: as §1, §2

E. faecalis IID 682 = assay: Antibacterial spectrum, MIC; format: cell-based; details: Enterococcus faecalis, IID682; 10^6 cells/ml; Gram +; standard strain
Excerpt: as §1, §2

[13] = system: Acinetobacter anitratus IID 876; assay: Antibacterial spectrum, MIC; format: cell-based; details: Acinetobacter calcoaceticus, IID876; 10^6 cells/ml; Gram -; standard strain
Excerpt: as §1, §2

[14] = system: Streptococcus pyogenes (S-8); assay: Antibacterial spectrum, MIC; format: cell-based; details: 10^6 cells/ml, Gram +, standard strain
Excerpt: as §1, §2

[15] = system: Staphylococcus aureus 209 P; assay: Antibacterial spectrum, MIC; format: cell-based; details: 10^6 cells/ml, Gram +, standard strain
Excerpt: as §1, §2

S. pneumoniae IID 552 = assay: Antibacterial spectrum, MIC; format: cell-based; details: Streptococcus pneumoniae, IID552; 10^6 cells/ml; Gram +; standard strain
Excerpt: as §1, §2

[16] = system: Escherichia coli NIHJ JC-2; assay: Antibacterial spectrum, MIC; format: cell-based; details: NIHJJC2, 10^6 cells/ml, Gram -, standard strain
Excerpt: as §1, §2

K. pneumoniae 1-220S = assay: Antibacterial spectrum, MIC; format: cell-based; details: Klebsiella pneumoniae, 1220S; 10^6 cells/ml; Gram -; standard strain
Excerpt: as §1, §2

[17] = system: Alcaligenes faecalis 0114002; assay: Antibacterial spectrum, MIC; format: cell-based; details: 10^6 cells/ml, Gram -, standard strain
Excerpt: as §1, §2

P. mirabilis IID 994 = assay: Antibacterial spectrum, MIC; format: cell-based; details: Proteus mirabilis, IID994; 10^6 cells/ml; Gram -; standard strain
Excerpt: as §1, §2

B. fragilis 25285 = assay: Antibacterial spectrum, MIC; format: cell-based; details: Bacteroides fragilis, 10^6 cells/ml, Gram -, standard strain
Excerpt: as §1, §2

[18] = system: Enterobacter cloacae IID 977; assay: Antibacterial spectrum, MIC; format: cell-based; details: IID977, 10^6 cells/ml, Gram -, standard strain
Excerpt: as §1, §2

[19] = system: Salmonella enteritidis IID 604; assay: Antibacterial spectrum, MIC; format: cell-based; details: Salmonella enterica; 10^6 cells/ml; Gram -; standard strain
Excerpt: as §1, §2

[20] = system: Klebsiella pneumoniae KY(GN)6445; assay: Antibacterial spectrum, MIC; format: cell-based; details: 10^6 cells/ml, Gram -, standard strain
Excerpt: as §1, §2

[21] = system: Fusobacterium necrophorum S-45; assay: Antibacterial spectrum, MIC; format: cell-based; details: S45, 10^6 cells/ml, Gram -, standard strain
Excerpt: as §1, §2

[22] = system: S. aureus IID 670 (Terajima); assay: Antibacterial spectrum, MIC; format: cell-based; details: Staphylococcus aureus, IID670; 10^6 cells/ml; Gram +; standard strain
Excerpt: as §1, §2

B. fragilis 0558 = assay: Antibacterial spectrum, MIC; format: cell-based; details: Bacteroides fragilis, 10^6 cells/ml, Gram -, standard strain
Excerpt: as §1, §2

[23] = system: Citrobacter freundii IID 976; assay: Antibacterial spectrum, MIC; format: cell-based; details: IID976, 10^6 cells/ml, Gram -, standard strain
Excerpt: as §1, §2

S. epidermidis IID 866 = assay: Antibacterial spectrum, MIC; format: cell-based; details: Staphylococcus epidermidis, IID866; 10^6 cells/ml; Gram +; standard strain
Excerpt: as §1, §2

[24] = system: Serratia marcescens IID 618; assay: Antibacterial spectrum, MIC; format: cell-based; details: IID618, 10^6 cells/ml, Gram -, standard strain
Excerpt: as §1, §2

[25] = system: Proteus vulgaris IFO 3167; assay: Antibacterial spectrum, MIC; format: cell-based; details: IFO3167, 10^6 cells/ml, Gram -, standard strain
Excerpt: as §1, §2

B. distasonis 8503 = assay: Antibacterial spectrum, MIC; format: cell-based; details: Parabacteroides distasonis, 10^6 cells/ml, Gram -, standard strain
Excerpt: as §1, §2

E. coli ATCC l0536 = assay: Antibacterial spectrum, MIC; format: cell-based; details: Escherichia coli, ATCCL0536
Excerpt: as §1, §2

In the case of `CCNCC1CCN(c2c(F)cc3c(=O)c(C(=O)O)cn(CC)c3c2F)C1` (centres unmarked) [CI-934, 1-ethyl-7-[3-[(ethylamino)methyl]-1-pyrrolidinyl]-6,8-difluoro-1,4-dihydro-4-oxo-3-quinolinecarboxylic acid], the “activity against gram-positive bacteria” value (gram-positive bacteria) is given as “relatively strong activity against gram-positive bacteria” and the “activity against gram-negative bacteria” value (gram-negative bacteria) is given as “weaker activity against gram-negative bacteria than such known compounds as Norfloxacin and Ciprofloxacin”.
Work on `O=C(O)c1cn(C2CC2)c2c(Br)c(N3CCNCC3)c(F)cc2c1=O` [Exp. 17, 8-Bromo-1-cyclopropyl-6-fluoro-1,4-dihydro-4-oxo-7-(1-piperazinyl)-3-quinolinecarboxylic acid] yielded an MIC [1] of 0.39 µg/mL (≈ 0.951 µM), an MIC [2] of 0.05 µg/mL (≈ 0.122 µM) and an MIC (Pst. micros UPI 5464-1) of 0.39 µg/mL (≈ 0.951 µM). The MIC [3] was 6.25 µg/mL (≈ 15.2 µM), the MIC (C. ramosum) was 6.25 µg/mL (≈ 15.2 µM) and the MIC [4] was 0.05 µg/mL (≈ 0.122 µM). For the same compound, the MIC [5] was 1.56 µg/mL (≈ 3.8 µM), the MIC [6] was 0.39 µg/mL (≈ 0.951 µM) and the MIC [7] was 0.39 µg/mL (≈ 0.951 µM). For the same compound, the MIC [8] was 0.78 µg/mL (≈ 1.9 µM), the MIC [9] was 0.39 µg/mL (≈ 0.951 µM) and the MIC [10] was 0.05 µg/mL (≈ 0.122 µM). It also gave an MIC (F. varium KYA 8501) of 3.13 µg/mL (≈ 7.63 µM), an MIC [11] of 0.78 µg/mL (≈ 1.9 µM) and an MIC (S. pyogenes IID 692) of 0.78 µg/mL (≈ 1.9 µM). For the same compound, the MIC (P. aeruginosa IFO 12689) was 0.78 µg/mL (≈ 1.9 µM), the MIC [12] was 1.56 µg/mL (≈ 3.8 µM) and the MIC (Shigella sonnei IID 969) was 0.025 µg/mL (≈ 0.0609 µM). It also gave an MIC (E. faecalis IID 682) of 0.39 µg/mL (≈ 0.951 µM), an MIC [13] of 0.1 µg/mL (≈ 0.244 µM) and an MIC [14] of 0.39 µg/mL (≈ 0.951 µM). For the same compound, the MIC [15] was 0.1 µg/mL (≈ 0.244 µM), the MIC (S. pneumoniae IID 552) was 0.78 µg/mL (≈ 1.9 µM) and the MIC [16] was 0.0125 µg/mL (≈ 0.0305 µM). It also gave an MIC (K. pneumoniae 1-220S) of 0.05 µg/mL (≈ 0.122 µM), an MIC [17] of 0.2 µg/mL (≈ 0.488 µM) and an MIC (P. mirabilis IID 994) of 0.025 µg/mL (≈ 0.0609 µM). For the same compound, the MIC (B. fragilis 25285) was 0.78 µg/mL (≈ 1.9 µM), the MIC [18] was 0.05 µg/mL (≈ 0.122 µM) and the MIC [19] was 0.025 µg/mL (≈ 0.0609 µM). The MIC [20] was 0.025 µg/mL (≈ 0.0609 µM), the MIC [21] was 0.78 µg/mL (≈ 1.9 µM) and the MIC [22] was 0.2 µg/mL (≈ 0.488 µM). For the same compound, the MIC (B. fragilis 0558) was 0.78 µg/mL (≈ 1.9 µM), the MIC [23] was 0.025 µg/mL (≈ 0.0609 µM) and the MIC (S. epidermidis IID 866) was 0.2 µg/mL (≈ 0.488 µM). It also gave an MIC [24] of 0.05 µg/mL (≈ 0.122 µM), an MIC [25] of 0.025 µg/mL (≈ 0.0609 µM) and an MIC (B. distasonis 8503) of 1.56 µg/mL (≈ 3.8 µM). It also gave an MIC (E. coli ATCC l0536) of 0.025 µg/mL (≈ 0.0609 µM).
In the case of `CCn1cc(C(=O)O)c(=O)c2cc(F)c(N3CCNCC3)cc21` [Norfloxacin], the “activity against gram-positive bacteria” value (gram-positive bacteria) is given as “effective” and the “activity against gram-negative bacteria” value (gram-negative bacteria) is given as “effective”.
